Data on one molecule can be found in US20240366523A1, “PATCH AND PRODUCTION METHOD THEREOF” (KANEKA CORPORATION, priority 2021, published 2024).

This series in a line: Kinematic viscosity of non-volatile hydrocarbon oil. The class given is physicochemical. The conditions noted are these: viscosity measuring temperature 40 ° C. From the text: The “kinematic viscosity” is a value obtained by converting a viscosity (mPa·s) measured according to “Method II Viscosity measurement by rotational viscometer (2.12 Single cylinder-type rotational viscometer (Brookfield type viscometer)” in “2.53 Viscosity Determination” of General Tests in “Japanese Pharmacopoeia 17th Edition” into a kinematic viscosity.

For `CC(C)CCCC(C)CCCC(C)CCCCC(C)CCCC(C)CCCC(C)C` (stereo not shown) [SQUALANE], the Kinematic viscosity stood at 20.5 mm^2/s.
